From patent publication US20250137054A1, “COMPOSITION AND METHOD FOR EVALUATING RESPONSIVENESS OF EDARAVONE” (MITSUBISHI TANABE PHARMA CORPORATION, priority 2022, published 2025)

Tests used:
[1] = system: ALS patient-derived neurons (iPS cell-derived motor neurons, heterozygous TARDBP mutation); assay: Evaluation of cellular damage by live cell imaging, ALS patient-derived neurons; assay type: cell-based, human; settings: edaravone 30 μM, 24 hours
Method: Human induced pluripotent stem (iPS) cells were induced from cells derived from an ALS patient and cells derived from a healthy individual using a conventional method. The cells derived from the ALS patient were used that are known to have an ALS risk mutation as a heterozygous mutation in the TARDBP gene. Each iPS cell was differentiated into a motor neuron (hereinafter, also simply referred to as a “neuron”) using a conventional method. […]
A treatment was performed in which the culture medium dissolved with a dimethyl sulfoxide (DMSO) solution of the evaluation compound (edaravone) (final concentration: edaravone 30 μM, DMSO 0.03% v/v) was brought into contact with the neurons after 7 days of cultivation, and occurrence of cellular damage was evaluated over time. […]
Evaluation of cellular damage was performed by live cell imaging using IncuCyte S3 (Sartorius) and Cytotox (Sartorius, 4846) according to an attached protocol. The neurite length per unit area (unit: mm/mm^2) and the number of dead cells (unit: count/image) were analyzed over time and used as evaluation indicators. […]

[2] = system: disease model cells (neurons derived from the 1464R cell line forcibly expressing wild-type and mutant TDP-43); assay: Evaluation of cell protection using chromogenic substrate (Cell Counting Kit-8), with EA; assay type: cell-based, rat; settings: Eda 1-200 μmol/L 24 h, then EA 20 μmol/L 24 h; vs Comparative Example 1 (FIG. 3)
Method: Using both vectors (a) and (b), the differentiated cell line in the infection medium was infected with adenovirus at a multiplicity of infection of 50, and cultured for 24 hours. As a result, neurons derived from the 1464R cell line, in which both wild-type and mutant TDP-43 were forcibly expressed intracellularly (hereinafter, also referred to as disease model cells), were obtained.
After that, a cell toxicity measurement kit (Cell Counting Kit-8, manufactured by DOJINDO) was used to expose the cells in each group according to a product protocol, and an amount of chromogenic substrate produced was measured by absorbance at 450 nm.
With this kit, the more viable cells present, the more chromogenic substrate is produced, resulting in a higher absorbance value at 450 nm. Therefore, a higher absorbance at 450 nm indicates a greater number of viable cells.
The data shown in FIG. 3 are all expressed as mean±standard error of the mean (SEM, n=4 for each). In FIG. 3, the symbol “##” indicates a statistically significant difference of p<0.01 compared to Comparative Example 1 (determined by Student t-test). In FIG. 3, the symbol “*” indicates a statistically significant difference of p<0.05 compared to Comparative Example 1, and the symbol “**” indicates a statistically significant difference of p<0.01 compared to Comparative Example 1 (both determined by Williams' multiple comparison test).

CC1=NN(c2ccccc2)C(=O)C1 [edaravone, 5-methyl-2-phenyl-2,4-dihydro-3H-pyrazol-3-one] was tested, and the “neurite length (rate of change, DMSO group = 100)” value ([1]; vs DMSO-treated group (FIG. 13)) was “significantly increased”, the “number of dead neurons (rate of change, DMSO group = 100)” value ([1]; vs DMSO-treated group (FIG. 14)) was “significantly decreased” and the “absorbance at 450 nm (number of viable cells)” value [2] was “increased in an Eda concentration-dependent manner”.
